Test results taken from ChEMBL document CHEMBL6134868, “Novel Aryl Sulfonium Modification on Vancomycin to Tackle MRSA and VRE In Vitro and In Vivo through Dual Enhanced Cell-Wall and Membrane Inhibition” (J Med Chem, 2025).

Tests used:
Escherichia coli = test: Antibacterial activity against Escherichia coli AB1157 incubated for 16 to 24 hrs by broth microdilution assay; format: functional; conditions: time 16-24 hrs
Klebsiella pneumoniae = test: Antibacterial activity against Klebsiella pneumoniae KP-1 incubated for 16 to 24 hrs by broth microdilution assay; format: functional; conditions: time 16-24 hrs
Staphylococcus aureus [1] = test: Antibacterial activity against methicillin-resistant Staphylococcus aureus […] infected in CD-1 mouse model assessed as animal survival rate at 7 mg/kg, iv measured for 15 days relative to control; format: functional; conditions: 360 h, time 15 day
Staphylococcus aureus [2] = test: Antibacterial activity against methicillin-resistant Staphylococcus aureus USA300 LAC infected in mouse model; format: functional
[3] = Volume of distribution at steady state in CD-1 mouse at 5 mg/kg, iv measured for 0.05 to 24 hrs by UPLC analysis; format: ADME, organism-based; conditions: in vivo, time 0.05-24 hrs, read-out: Vdss
Enterococcus faecium [4] = test: Antibacterial activity against vancomycin-resistant Enterococcus faecium Efm-HS-08257 harboring VanM phenotype incubated for 16 to 24 hrs by broth microdilution assay; format: functional; conditions: time 16-24 hrs
Staphylococcus aureus [5] = test: Antibacterial activity against methicillin-resistant Staphylococcus aureus USA300 LAC incubated for 16 to 24 hrs by broth microdilution assay; format: functional; conditions: time 16-24 hrs
Staphylococcus aureus [6] = test: Antibacterial activity against vancomycin-intermediate Staphylococcus aureus XN108 infected in CD-1 mouse model assessed as animal survival rate at 7 mg/kg, iv measured for 15 days relative to control; format: functional; conditions: XN108, 360 h, time 15 day
Enterococcus faecium [7] = test: Antibacterial activity against vancomycin-resistant Enterococcus faecium Efm-HS-0649 harboring VanA phenotype incubated for 16 to 24 hrs by broth microdilution assay; format: functional; conditions: time 16-24 hrs
Pseudomonas aeruginosa = test: Antibacterial activity against Pseudomonas aeruginosa PAO1 incubated for 16 to 24 hrs by broth microdilution assay; format: functional; conditions: time 16-24 hrs
[8] = Half life in CD-1 mouse at 5 mg/kg, iv measured for 0.05 to 24 hrs by UPLC analysis; format: ADME, organism-based; conditions: in vivo, time 0.05-24 hrs
Staphylococcus aureus [9] = test: Antibacterial activity against vancomycin-intermediate Staphylococcus aureus Mu50 incubated for 16 to 24 hrs by broth microdilution assay; format: functional; conditions: time 16-24 hrs
[10] = MRT (infinity) in CD-1 mouse at 5 mg/kg, iv measured for 0.05 to 24 hrs by UPLC analysis; format: ADME, organism-based; conditions: in vivo, time 0.05-24 hrs
Enterococcus faecium [11] = test: Antibacterial activity against vancomycin-resistant Enterococcus faecium Efm-HS-vb02 harboring VanB phenotype incubated for 16 to 24 hrs by broth microdilution assay; format: functional; conditions: time 16-24 hrs
[12] = AUClast in CD-1 mouse at 5 mg/kg, iv measured for 0.05 to 24 hrs by UPLC analysis; format: ADME, organism-based; conditions: in vivo, time 0.05-24 hrs
[13] = AUC (infinity) in CD-1 mouse at 5 mg/kg, iv measured for 0.05 to 24 hrs by UPLC analysis; format: ADME, organism-based; conditions: in vivo, time 0.05-24 hrs
[14] = Clearance in CD-1 mouse at 5 mg/kg, iv measured for 0.05 to 24 hrs by UPLC analysis; format: ADME, organism-based; conditions: in vivo, time 0.05-24 hrs
Enterococcus faecium [15] = test: Antibacterial activity against vancomycin-resistant Enterococcus faecium Efm-HS-vb01 harboring VanB phenotype incubated for 16 to 24 hrs by broth microdilution assay; format: functional; conditions: time 16-24 hrs
[16] = Protein binding in plasma (unknown origin); format: ADME, cell-free; conditions: read-out: PPB (converted)
Acinetobacter baumannii [17] = test: Antibacterial activity against carbapenem-resistant Acinetobacter baumannii CRAB-1 clinical isolate incubated for 16 to 24 hrs by broth microdilution assay; format: functional; conditions: time 16-24 hrs
Acinetobacter baumannii [18] = test: Antibacterial activity against Acinetobacter baumannii ATCC19606 incubated for 16 to 24 hrs by broth microdilution assay; format: functional; conditions: time 16-24 hrs

| SMILES | MIC (Escherichia coli) | MIC (Klebsiella pneumoniae) | MIC (Enterococcus faecium [4]) | MIC (Staphylococcus aureus [5]) | MIC (Enterococcus faecium [7]) | MIC (Pseudomonas aeruginosa) | MIC (Staphylococcus aureus [9]) | MIC (Enterococcus faecium [11]) | MIC (Enterococcus faecium [15]) | fraction unbound [16] | MIC (Acinetobacter baumannii [17]) | MIC (Acinetobacter baumannii [18]) | also measured |
| --- | --- | --- | --- | --- | --- | --- | --- | --- | --- | --- | --- | --- | --- |
| CCCCCCCCC(O)C[S+](C)CCCNCc1c(O)cc2c(c1O)-c1cc(ccc1O)[C@H]1NC(=O)[C@@H]3NC(=O)[C@H](CC(N)=O)NC(=O)[C@H](NC(=O)[C@@H](CC(C)C)NC)[C@H](O)c4ccc(c(Cl)c4)Oc4cc3cc(c4O[C@@H]3O[C@H](CO)[C@@H](O)[C@H](O)[C@H]3O[C@H]3C[C@](C)(N)[C@H](O)[C@H](C)O3)Oc3ccc(cc3Cl)[C@@H](O)[C@H](NC1=O)C(=O)N[C@@H]2C(=O)O.O=C([O-])C(F)(F)F (some centres not stated) | 32 µg/mL | > 128 µg/mL | 2 µg/mL | ≤ 0.063 µg/mL | 8 µg/mL | > 128 µg/mL | 0.25 µg/mL | 1 µg/mL | ≤ 0.063 µg/mL |  |  |  | survival at 7 mg/kg (Staphylococcus aureus [1]): 86.7%; Efficacy (Staphylococcus aureus [2]): 53.3%; Vd [3]: 0.672 L/kg; survival at 7 mg/kg (Staphylococcus aureus [6]): 80%; half-life [8]: 1.13 h; MRT inf [10]: 0.931 h; AUC(0-t) [12]: 7050 ng·h/mL; AUC(0-inf) [13]: 7080 ng·h/mL; clearance [14]: 12 mL/min/kg |
| CN[C@H]1C(=O)N[C@@H]2Cc3ccc(cc3)Oc3cc4cc(c3O[C@@H]3O[C@H](C(=O)O)[C@@H](O)[C@H](O)[C@H]3NC(=O)CCCCCCCCC(C)C)Oc3ccc(cc3Cl)[C@@H](O)[C@@H]3NC(=O)[C@H](NC(=O)[C@@H]4NC(=O)[C@@H](NC2=O)c2cc(cc(O)c2Cl)Oc2cc1ccc2O)c1ccc(O)c(c1)-c1c(OC2OC(CO)C(O)C(O)C2O)cc(O)cc1[C@@H](C(=O)NCCCN(C)C)NC3=O (some centres not stated) |  |  |  |  |  |  |  |  |  | 0.07 |  |  |  |
| CN[C@H](CC(C)C)C(=O)N[C@H]1C(=O)N[C@@H](CC(N)=O)C(=O)N[C@H]2C(=O)N[C@H]3C(=O)N[C@H](C(=O)N[C@H](C(=O)O)c4cc(O)cc(O)c4-c4cc3ccc4O)[C@H](O[C@H]3C[C@](C)(N)[C@@H](O)[C@H](C)O3)c3ccc(c(Cl)c3)Oc3cc2cc(c3O[C@@H]2O[C@H](CO)[C@@H](O)[C@H](O)[C@H]2O[C@H]2C[C@](C)(NCc3ccc(-c4ccc(Cl)cc4)cc3)[C@@H](O)[C@H](C)O2)Oc2ccc(cc2Cl)[C@H]1O [ORITAVANCIN] |  |  |  |  |  |  |  |  |  | 0.14 |  |  |  |
| CN[C@H](CC(C)C)C(=O)N[C@H]1C(=O)N[C@@H](CC(N)=O)C(=O)N[C@H]2C(=O)N[C@H]3C(=O)N[C@H](C(=O)N[C@H](C(=O)NCCC[S+](C)C[C@H](O)COc4ccccc4)c4cc(O)cc(O)c4-c4cc3ccc4O)[C@H](O)c3ccc(c(Cl)c3)Oc3cc2cc(c3O[C@@H]2O[C@H](CO)[C@@H](O)[C@H](O)[C@H]2O[C@H]2C[C@](C)(N)[C@H](O)[C@H](C)O2)Oc2ccc(cc2Cl)[C@H]1O.O=C([O-])C(F)(F)F (some centres not stated) | 16 µg/mL | > 128 µg/mL | 16 µg/mL | 0.25 µg/mL | 32 µg/mL | 128 µg/mL | 1 µg/mL | 4 µg/mL | 16 µg/mL |  | > 128 µg/mL | 64 µg/mL |  |
| CN[C@H](CC(C)C)C(=O)N[C@H]1C(=O)N[C@@H](CC(N)=O)C(=O)N[C@H]2C(=O)N[C@H]3C(=O)N[C@H](C(=O)N[C@H](C(=O)NCCC[S+](C)CC(O)COc4ccc(-c5ccccc5)cc4)c4cc(O)cc(O)c4-c4cc3ccc4O)[C@H](O)c3ccc(c(Cl)c3)Oc3cc2cc(c3O[C@@H]2O[C@H](CO)[C@@H](O)[C@H](O)[C@H]2O[C@H]2C[C@](C)(N)[C@H](O)[C@H](C)O2)Oc2ccc(cc2Cl)[C@H]1O.O=C([O-])C(F)(F)F (some centres not stated) | 16 µg/mL | > 128 µg/mL | 4 µg/mL | ≤ 0.063 µg/mL | 8 µg/mL | > 128 µg/mL | 0.5 µg/mL | 1 µg/mL | 4 µg/mL |  | 128 µg/mL | 32 µg/mL |  |
